6 compounds from ChEMBL document CHEMBL1201862, “PubChem BioAssay data set” (2004) can be followed below.

Active and inactive are the calls of the source.

One assay deals with Beta-arrestin-1 (Homo sapiens, UniProt P49407). Kind of assay: beta-arrestin/AP2 interaction blockers, potency – biochemical, cherry pick 1, beta2-adaptin appendage, flow cytometry, dose response (AID 588783). The class given is functional. (In general: In flow cytometry, cells or beads pass a laser one at a time.)
The next assay deals with T1, Hexokinase HKDC1 (Homo sapiens, UniProt Q2TB90).
T1 sequence (Q2TB90 whole entry): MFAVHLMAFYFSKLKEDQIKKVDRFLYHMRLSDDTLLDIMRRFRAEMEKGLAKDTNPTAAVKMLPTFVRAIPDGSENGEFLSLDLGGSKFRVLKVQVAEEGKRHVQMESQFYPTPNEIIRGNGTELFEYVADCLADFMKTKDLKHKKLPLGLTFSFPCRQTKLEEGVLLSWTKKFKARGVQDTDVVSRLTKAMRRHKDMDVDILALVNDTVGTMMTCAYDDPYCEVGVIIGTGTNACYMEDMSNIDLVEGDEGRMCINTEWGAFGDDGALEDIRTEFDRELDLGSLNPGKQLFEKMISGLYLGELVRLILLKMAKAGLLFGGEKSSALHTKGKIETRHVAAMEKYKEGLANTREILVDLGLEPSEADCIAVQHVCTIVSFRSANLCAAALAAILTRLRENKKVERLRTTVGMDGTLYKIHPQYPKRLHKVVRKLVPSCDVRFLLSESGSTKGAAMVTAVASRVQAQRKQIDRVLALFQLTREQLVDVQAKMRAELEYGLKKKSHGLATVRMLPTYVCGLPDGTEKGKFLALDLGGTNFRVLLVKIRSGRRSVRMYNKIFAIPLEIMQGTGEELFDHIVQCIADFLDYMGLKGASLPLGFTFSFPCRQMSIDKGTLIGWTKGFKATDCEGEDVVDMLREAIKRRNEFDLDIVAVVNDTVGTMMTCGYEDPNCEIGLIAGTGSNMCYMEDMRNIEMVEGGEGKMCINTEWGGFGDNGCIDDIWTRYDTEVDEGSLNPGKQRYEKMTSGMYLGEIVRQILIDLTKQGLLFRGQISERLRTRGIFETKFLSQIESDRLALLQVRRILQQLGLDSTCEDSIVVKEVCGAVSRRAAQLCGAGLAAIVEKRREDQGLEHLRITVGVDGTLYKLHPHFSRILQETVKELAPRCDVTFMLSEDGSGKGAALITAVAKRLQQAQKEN
The assay can be described thus: inhibition of HKDC1 glucose phosphorylation – biochemical, W721R variant, dose response (AID 504729). It is filed as functional.

For assay [1], the target named is T2, Sentrin-specific protease 8 (Homo sapiens, UniProt Q96LD8).
T2 sequence (Q96LD8 whole entry): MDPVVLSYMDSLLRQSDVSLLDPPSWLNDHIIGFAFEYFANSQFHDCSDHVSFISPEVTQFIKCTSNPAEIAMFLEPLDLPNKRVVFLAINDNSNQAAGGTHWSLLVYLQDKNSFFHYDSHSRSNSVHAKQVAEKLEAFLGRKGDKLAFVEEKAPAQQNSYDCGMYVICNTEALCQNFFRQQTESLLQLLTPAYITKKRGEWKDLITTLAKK
The assay can be described thus: inhibition of human SENP8 cleavage activity – biochemical, luminescence, SAR follow-up (AID 504501). It is filed as functional.

A further assay concerns HEK293. The assay can be described thus: NOD2 signaling inhibitors in MDP-stimulated cells, cell-based, uHTS, luminescence (AID 2001). The class given is functional. The following applies: Homo sapiens.
The target in assay [2] is Serine/threonine-protein kinase Chk1 (Homo sapiens, UniProt O14757). The class given is functional.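 Note: measured as one member of a kinome-wide kinase profiling panel.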
Assay [3] has as its target Cell division cycle 7-related protein kinase (Homo sapiens, UniProt O00311). It is filed as functional.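 Note: value obtained from a kinome-wide kinase panel.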
Assay [4] has as its target Serine/threonine-protein kinase pim-1 (Homo sapiens, UniProt P11309). The class given is functional.
Assay [5] addresses Receptor tyrosine-protein kinase erbB-2 (Homo sapiens, UniProt P04626). Kind of assay: Navigating the Kinome. Panel member name: ERBB2. The class given is functional.
The target of assay [6] is Tyrosine-protein kinase SYK (Homo sapiens, UniProt P43405). It is filed as functional.
The target of assay [7] is Interleukin-1 receptor-associated kinase 4 (Homo sapiens, UniProt Q9NWZ3). The class given is functional.
For assay [8], the target named is Mitogen-activated protein kinase 1 (Homo sapiens, UniProt P28482). The class given is functional.
Assay [9] has as its target Rho-associated protein kinase 2 (Homo sapiens, UniProt O75116). The class given is functional.
Assay [10] has as its target Megakaryocyte-associated tyrosine-protein kinase (Homo sapiens, UniProt P42679). It is filed as functional.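 Note: affinity measured as one member of a kinase panel (Navigating the Kinome) against MATK.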
For assay [11], the target named is MAP kinase-activated protein kinase 2 (Homo sapiens, UniProt P49137). It is filed as functional.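 Note: measured as one member of a kinome-wide kinase panel.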
Assay [12] has as its target Dual specificity tyrosine-phosphorylation-regulated kinase 3 (Homo sapiens, UniProt O43781). The class given is functional.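 Note: measured as one member of a broad kinase panel.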
Assay [13] deals with Ribosomal protein S6 kinase alpha-3 (Homo sapiens, UniProt P51812). The class given is functional.
For assay [14], the target named is Non-receptor tyrosine-protein kinase TYK2 (Homo sapiens, UniProt P29597). It is filed as functional.
The target of assay [15] is Fibroblast growth factor receptor 3 (Homo sapiens, UniProt P22607). The class given is functional.
Assay [16] deals with cGMP-dependent protein kinase 1 (Homo sapiens, UniProt Q13976). It is filed as functional.
Assay [17] concerns the target Kappa-type opioid receptor (Homo sapiens, UniProt P41145). The class given is functional.
A short description of assay [18]: fluconazole-exposed Candida albicans growth modulators – fluorescence, retest, confirmation (AID 2467). It is filed as functional, cell-based.
Assay [19] can be described thus: NIH-3T3 fibroblast cytotoxicity, dose response, cytotoxicity control, cell-based, fluorescence, Alamar Blue, secondary assay (AID 2327).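 Note: NIH-3T3 mouse fibroblasts cultured with fluconazole at 8 µg/mL.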 It is filed as functional. On the technique in general: The colour change of resazurin is a common sign of viable cells or microbes.
Assay [20] concerns BJ. The assay can be described thus: cells. The class given is functional, cell-based. The following applies: Homo sapiens.
The subject of assay [21] is BJ. Kind of assay: BJ-TERT-LT-ST fibroblast viability loss – cell-based, RAS-independent, luminescence, dose response (AID 1935).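 Note: BJ fibroblasts immortalized with TERT plus LT and ST oncogenes.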 The class given is functional. The settings on record: Homo sapiens.
The target of the next assay is Beta-galactosidase (Escherichia coli, UniProt Q8VNN2). The assay can be described thus: PubChem AID 485352. The class given is functional.
Assay [22] concerns the target T3, Type-1 angiotensin II receptor (Homo sapiens, UniProt P30556).
T3 sequence (P30556 whole entry): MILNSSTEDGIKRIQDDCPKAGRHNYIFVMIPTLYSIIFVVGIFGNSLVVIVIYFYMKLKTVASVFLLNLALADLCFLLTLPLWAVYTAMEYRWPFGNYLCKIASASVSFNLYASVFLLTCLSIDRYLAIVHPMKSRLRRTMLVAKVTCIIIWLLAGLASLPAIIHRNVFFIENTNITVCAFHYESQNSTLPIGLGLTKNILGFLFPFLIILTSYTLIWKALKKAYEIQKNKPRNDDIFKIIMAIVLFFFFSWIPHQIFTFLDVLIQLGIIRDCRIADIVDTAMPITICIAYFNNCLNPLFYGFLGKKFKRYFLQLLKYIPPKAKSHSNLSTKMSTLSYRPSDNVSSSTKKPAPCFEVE
The assay can be described thus: antagonism of angiotensin II type 1 receptor – cell-based, uHTS hits, selectivity assay for APJ receptor antagonist project, dose response (AID 463214).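 Note: antagonist potency against angiotensin II stimulated AT1 response.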 The class given is functional.

Sequence of Non-receptor tyrosine-protein kinase TYK2 (P29597 whole entry): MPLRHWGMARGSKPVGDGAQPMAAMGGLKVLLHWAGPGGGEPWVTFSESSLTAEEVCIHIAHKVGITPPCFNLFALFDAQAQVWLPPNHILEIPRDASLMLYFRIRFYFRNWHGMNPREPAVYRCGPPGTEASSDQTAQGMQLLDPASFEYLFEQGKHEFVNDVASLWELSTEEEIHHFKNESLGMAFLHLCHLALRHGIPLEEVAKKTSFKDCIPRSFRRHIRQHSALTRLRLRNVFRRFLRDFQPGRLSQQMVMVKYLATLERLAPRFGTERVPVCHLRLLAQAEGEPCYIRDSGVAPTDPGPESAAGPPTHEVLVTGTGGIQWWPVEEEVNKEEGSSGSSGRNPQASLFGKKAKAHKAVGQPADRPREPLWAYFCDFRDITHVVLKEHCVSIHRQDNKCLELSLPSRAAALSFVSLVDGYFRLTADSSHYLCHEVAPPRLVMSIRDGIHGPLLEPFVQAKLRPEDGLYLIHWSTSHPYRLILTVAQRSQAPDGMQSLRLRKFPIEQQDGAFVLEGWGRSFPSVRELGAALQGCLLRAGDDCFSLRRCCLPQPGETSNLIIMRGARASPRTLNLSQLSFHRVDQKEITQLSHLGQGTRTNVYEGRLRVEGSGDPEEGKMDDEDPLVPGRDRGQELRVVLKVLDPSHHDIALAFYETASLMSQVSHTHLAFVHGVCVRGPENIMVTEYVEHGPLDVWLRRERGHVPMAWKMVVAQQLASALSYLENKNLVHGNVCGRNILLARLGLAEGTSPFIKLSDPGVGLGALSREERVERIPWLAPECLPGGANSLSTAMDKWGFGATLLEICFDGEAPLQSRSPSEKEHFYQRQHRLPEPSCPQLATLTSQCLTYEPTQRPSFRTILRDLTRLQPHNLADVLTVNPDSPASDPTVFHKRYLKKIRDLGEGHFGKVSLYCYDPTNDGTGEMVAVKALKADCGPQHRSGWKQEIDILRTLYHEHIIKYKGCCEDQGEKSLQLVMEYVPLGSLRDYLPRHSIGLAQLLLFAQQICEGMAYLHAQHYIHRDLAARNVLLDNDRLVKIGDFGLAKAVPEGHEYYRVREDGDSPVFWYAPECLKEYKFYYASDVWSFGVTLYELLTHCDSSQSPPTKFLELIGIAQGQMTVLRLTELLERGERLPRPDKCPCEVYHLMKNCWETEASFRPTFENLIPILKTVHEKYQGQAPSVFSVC
Sequence of Beta-arrestin-1 (P49407 whole entry): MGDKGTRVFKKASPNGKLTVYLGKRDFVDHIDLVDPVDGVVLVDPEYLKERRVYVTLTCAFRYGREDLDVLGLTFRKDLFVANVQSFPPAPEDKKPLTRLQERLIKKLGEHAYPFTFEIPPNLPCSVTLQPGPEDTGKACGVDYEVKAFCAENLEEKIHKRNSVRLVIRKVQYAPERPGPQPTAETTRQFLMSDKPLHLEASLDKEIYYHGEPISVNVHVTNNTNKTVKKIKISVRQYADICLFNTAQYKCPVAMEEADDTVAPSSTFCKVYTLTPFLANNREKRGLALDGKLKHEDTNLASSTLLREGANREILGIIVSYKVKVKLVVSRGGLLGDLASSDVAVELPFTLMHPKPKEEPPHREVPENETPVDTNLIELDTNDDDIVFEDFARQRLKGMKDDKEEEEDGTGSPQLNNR
Sequence of MAP kinase-activated protein kinase 2 (P49137 whole entry): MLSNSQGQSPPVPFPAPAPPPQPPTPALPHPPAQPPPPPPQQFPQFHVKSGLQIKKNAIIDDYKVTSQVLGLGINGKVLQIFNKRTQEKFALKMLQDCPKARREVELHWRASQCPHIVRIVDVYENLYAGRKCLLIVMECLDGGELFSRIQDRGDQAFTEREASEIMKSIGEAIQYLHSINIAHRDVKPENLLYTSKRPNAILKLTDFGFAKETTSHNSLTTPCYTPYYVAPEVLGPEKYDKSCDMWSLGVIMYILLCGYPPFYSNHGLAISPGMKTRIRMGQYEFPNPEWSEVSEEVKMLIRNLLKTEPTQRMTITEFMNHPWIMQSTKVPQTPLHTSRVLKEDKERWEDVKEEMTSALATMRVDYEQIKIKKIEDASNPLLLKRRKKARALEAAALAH
Sequence of cGMP-dependent protein kinase 1 (Q13976 whole entry): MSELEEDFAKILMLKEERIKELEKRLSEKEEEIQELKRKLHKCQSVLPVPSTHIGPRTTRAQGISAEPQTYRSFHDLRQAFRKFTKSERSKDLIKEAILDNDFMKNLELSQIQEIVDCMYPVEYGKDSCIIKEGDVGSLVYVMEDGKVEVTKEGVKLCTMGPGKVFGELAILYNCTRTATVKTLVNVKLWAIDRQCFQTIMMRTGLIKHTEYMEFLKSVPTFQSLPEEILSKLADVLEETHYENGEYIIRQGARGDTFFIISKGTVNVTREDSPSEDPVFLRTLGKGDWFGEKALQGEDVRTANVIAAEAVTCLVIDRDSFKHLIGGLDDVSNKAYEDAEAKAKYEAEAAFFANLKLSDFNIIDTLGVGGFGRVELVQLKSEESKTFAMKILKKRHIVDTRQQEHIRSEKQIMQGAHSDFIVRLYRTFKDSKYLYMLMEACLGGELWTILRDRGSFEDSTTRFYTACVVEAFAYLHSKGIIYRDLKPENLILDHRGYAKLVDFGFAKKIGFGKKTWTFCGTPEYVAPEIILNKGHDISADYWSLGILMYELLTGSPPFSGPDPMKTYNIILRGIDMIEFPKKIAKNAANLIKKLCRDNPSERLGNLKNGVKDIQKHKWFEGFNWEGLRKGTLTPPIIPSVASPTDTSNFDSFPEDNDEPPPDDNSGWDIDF
Sequence of Interleukin-1 receptor-associated kinase 4 (Q9NWZ3 whole entry): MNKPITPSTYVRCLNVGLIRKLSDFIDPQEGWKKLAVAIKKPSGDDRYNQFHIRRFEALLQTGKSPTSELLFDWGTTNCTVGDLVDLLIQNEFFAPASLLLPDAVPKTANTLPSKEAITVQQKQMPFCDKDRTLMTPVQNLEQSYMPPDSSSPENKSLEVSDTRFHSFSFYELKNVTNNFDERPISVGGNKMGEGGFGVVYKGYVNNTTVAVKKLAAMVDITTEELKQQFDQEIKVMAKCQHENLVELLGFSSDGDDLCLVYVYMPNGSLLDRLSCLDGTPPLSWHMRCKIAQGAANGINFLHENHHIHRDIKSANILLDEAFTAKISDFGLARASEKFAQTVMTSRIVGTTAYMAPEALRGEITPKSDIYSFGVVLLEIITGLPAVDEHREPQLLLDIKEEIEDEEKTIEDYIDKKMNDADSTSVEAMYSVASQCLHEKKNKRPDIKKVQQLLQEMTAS
Sequence of Beta-galactosidase (Q8VNN2 whole entry): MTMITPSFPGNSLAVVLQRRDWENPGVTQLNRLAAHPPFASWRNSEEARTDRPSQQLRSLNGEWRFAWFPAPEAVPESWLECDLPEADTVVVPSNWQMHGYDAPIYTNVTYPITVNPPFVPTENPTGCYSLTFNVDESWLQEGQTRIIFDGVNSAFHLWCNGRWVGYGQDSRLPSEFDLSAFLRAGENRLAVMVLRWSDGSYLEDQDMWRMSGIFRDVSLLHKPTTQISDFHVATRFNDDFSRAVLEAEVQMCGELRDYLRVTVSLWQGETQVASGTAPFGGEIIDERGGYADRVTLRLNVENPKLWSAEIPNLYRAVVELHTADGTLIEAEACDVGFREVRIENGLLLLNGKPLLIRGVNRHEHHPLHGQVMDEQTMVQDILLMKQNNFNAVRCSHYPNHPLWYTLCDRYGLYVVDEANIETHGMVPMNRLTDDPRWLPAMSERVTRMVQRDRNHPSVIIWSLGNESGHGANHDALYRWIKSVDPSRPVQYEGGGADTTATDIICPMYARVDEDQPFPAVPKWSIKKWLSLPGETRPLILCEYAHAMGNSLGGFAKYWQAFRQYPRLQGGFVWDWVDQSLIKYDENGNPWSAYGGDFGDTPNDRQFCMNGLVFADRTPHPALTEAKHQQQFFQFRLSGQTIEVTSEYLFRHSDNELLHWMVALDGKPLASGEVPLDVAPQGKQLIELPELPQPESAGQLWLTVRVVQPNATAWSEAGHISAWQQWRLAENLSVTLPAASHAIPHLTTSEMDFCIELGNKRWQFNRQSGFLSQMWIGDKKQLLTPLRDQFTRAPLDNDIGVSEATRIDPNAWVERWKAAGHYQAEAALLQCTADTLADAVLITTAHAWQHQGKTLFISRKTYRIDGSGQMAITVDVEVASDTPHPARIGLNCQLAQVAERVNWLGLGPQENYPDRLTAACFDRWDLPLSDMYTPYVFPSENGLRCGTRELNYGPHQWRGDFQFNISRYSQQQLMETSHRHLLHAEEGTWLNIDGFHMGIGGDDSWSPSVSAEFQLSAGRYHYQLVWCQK
Sequence of Serine/threonine-protein kinase Chk1 (O14757 whole entry): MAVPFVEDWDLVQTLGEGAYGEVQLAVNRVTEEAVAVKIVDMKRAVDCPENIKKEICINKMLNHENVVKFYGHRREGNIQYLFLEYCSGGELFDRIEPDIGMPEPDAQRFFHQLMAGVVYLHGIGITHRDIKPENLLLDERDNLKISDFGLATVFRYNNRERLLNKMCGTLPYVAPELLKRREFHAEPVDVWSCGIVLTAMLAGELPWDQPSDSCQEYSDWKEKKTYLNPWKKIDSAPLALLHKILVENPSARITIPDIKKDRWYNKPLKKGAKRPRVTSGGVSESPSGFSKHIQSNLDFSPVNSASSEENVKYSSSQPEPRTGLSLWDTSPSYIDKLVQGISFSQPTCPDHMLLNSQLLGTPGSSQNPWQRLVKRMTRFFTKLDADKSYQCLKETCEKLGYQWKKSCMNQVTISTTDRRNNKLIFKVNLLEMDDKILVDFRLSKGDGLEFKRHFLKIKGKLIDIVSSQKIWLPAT
Sequence of Serine/threonine-protein kinase pim-1 (P11309 whole entry): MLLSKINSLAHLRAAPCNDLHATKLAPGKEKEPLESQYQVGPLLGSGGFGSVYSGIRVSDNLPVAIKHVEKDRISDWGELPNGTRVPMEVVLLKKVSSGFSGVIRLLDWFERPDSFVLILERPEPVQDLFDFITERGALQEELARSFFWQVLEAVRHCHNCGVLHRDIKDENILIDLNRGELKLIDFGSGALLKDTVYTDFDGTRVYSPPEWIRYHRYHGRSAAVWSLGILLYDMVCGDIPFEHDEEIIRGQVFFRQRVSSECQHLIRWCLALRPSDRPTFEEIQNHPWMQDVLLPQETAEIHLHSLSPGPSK

For orientation: IC50 means the concentration at which inhibition is half-maximal. With `CN(C)c1ncc(C2=C(Cl)C(=O)C(N3CCCC3)=C(Cl)C2=O)s1`, the IC50 at Beta-arrestin-1 was 10.7 µM (active).

`Cc1ccc(C(=O)c2c(C)oc3c2C(=O)C(=O)c2ccccc2-3)cc1`: at Hexokinase HKDC1, the IC50 was 6.94 µM (active).

Turning to `Cc1cnc(NC(=O)c2sc3ccccc3c2Cl)s1`, the IC50 in assay [1] is 3.78 µM (active).

Consider `O=C1C(O)=C/C(=N\c2ccccc2O)c2ccccc21`, for which the IC50 with HEK293 is > 20 µM (inactive).

The Ki is the dissociation constant of the complex between target and ligand, obtained from inhibition or displacement. On to `O=C1NC(=S)SC1=C1C(=O)Nc2ccc(Br)cc21`, for which the Ki in assay [2] is > 7.94 µM (inactive); in assay [3], > 1.26 µM (inactive); in assay [4], 0.0631 µM (active); in assay [5] it was > 1.58 µM (inactive); in [6] it was 0.794 µM (active); in assay [7], 7.94 µM (active). For the same compound, the Ki in assay [8] is > 7.94 µM (inactive); in [9], 0.794 µM (active); in assay [10], > 2 µM (inactive); in assay [11] it was > 7.94 µM (inactive); in assay [12] it was > 6.31 µM (inactive); in assay [13] it was > 7.94 µM (inactive). Further, the Ki in assay [14], in assay [15] and in assay [16] was > 2 µM (inactive) throughout.

Broadly, the EC50 is the concentration at which the effect is half-maximal. As to `Cc1ccc(Nc2cc(C)nn2-c2nc(C)cc(O)n2)cc1`, the values for the concentration for half-maximal inhibition (IC50) in [17] and in assay [22] were greater than 32 µM and 1.77 µM (active), respectively. The EC50 was < 0.03 µM (active) in assay [18]; 1.76 µM (inconclusive) in assay [19]; 14 µM (active) with BJ [20]; 2.94 µM (inconclusive) in the assay on BJ [21]; > 40 µM (inactive) at Beta-galactosidase.
